Measurements from ChEMBL document CHEMBL1129045, “Potential antitumor agents. 24. Synthesis and pharmacological behavior of imidazo[2,1-b]thiazole guanylhydrazones bearing at least one chlorine” (J Med Chem, 1996).
≈ marks a conversion by molar mass, not a printed value.

Key:
[1] = test system: Mus musculus; assay: Compound was tested in vivo antitumor activity against Ehrlich ascites in mice at 25 mg/kg ip; type: functional; conditions: route intraperitoneal
[2] = test system: HeLa; assay: Compound was tested in vitro for cytotoxicity against HeLa cells.; type: functional, cell-based, Homo sapiens
[3] = Compound was tested for initial contractile force 0.4+/-0.1 g (% deltabase line value)
[4] = Compound was tested for concentration to obtain Emax (microg)
[5] = test system: Mus musculus; assay: Compound was tested in vivo antitumor activity against Ehrlich ascites in mice at 12.5 mg/kg ip; type: functional; conditions: route intraperitoneal
[6] = test system: Mus musculus; assay: Compound was tested in vivo antitumor activity against Ehrlich ascites in mice at 100 mg/kg ip; type: functional; conditions: route intraperitoneal
[7] = test system: Mus musculus; assay: Compound was tested in vivo antitumor activity against Ehrlich ascites in mice at 6.25 mg/kg ip; type: functional; conditions: route intraperitoneal
[8] = test system: Mus musculus; assay: Compound was tested in vivo antitumor activity against Ehrlich ascites in mice at 50 mg/kg ip; type: functional; conditions: route intraperitoneal
[9] = test system: Mus musculus; assay: Compound was tested in vivo antitumor activity against Ehrlich ascites in mice at 1 mg/kg ip; type: functional; conditions: route intraperitoneal
[10] = organism: Cavia porcellus; assay: Positive inotropic activity in isolated guinea pig atria, Concentration producing 50% of the maximal effect; type: functional

`N=C(N)N/N=C/c1c(-c2ccc(Cl)cc2Cl)nc2sccn12` showed a T/C [1] of 146%, an IC50 [2] of 2.5 µg/mL (≈ 7.08 µM) and a Delta [3] of 100%.
`COc1cc([S+](C)[O-])ccc1-c1nc2ncccc2[nH]1` (configuration not stated) [SULMAZOLE] showed a Delta [3] of 163% and an Emax [4] of 350 µg.
`Cc1sc2nc(-c3ccc(Cl)cc3)c(/C=N/N=C(N)N)n2c1C` showed an IC50 [2] of 2 µg/mL (≈ 5.77 µM), a Delta [3] of 118% and a T/C [5] of 140%.
`O=c1[nH]cc(F)c(=O)[nH]1` [FLUOROURACIL] showed a T/C [6] of 180% and an IC50 [2] of 6 µg/mL (≈ 46.1 µM).
With `Cc1cn2c(/C=N/N=C(N)N)c(-c3ccc(Cl)cc3)nc2s1` the IC50 [2] was 1.5 µg/mL (≈ 4.51 µM), the Delta [3] was 106% and the T/C [7] was 166%.
With `Cc1sc2nc(Cl)c(/C=N/N=C(N)N)n2c1C` the IC50 [2] was > 10 µg/mL, the Delta [3] was 137% and the T/C [8] was 100%.
In the case of `Cc1csc2nc(-c3ccc(Cl)cc3)c(/C=N/N=C(N)N)n12`, the T/C [1] is reported as 133%, the IC50 [2] is reported as 2 µg/mL (≈ 6.01 µM) and the Delta [3] is reported as 115%.
With `N=C(N)N/N=C/c1c(Cl)nc2sc(Cl)cn12` the T/C [6] was 120%, the IC50 [2] was > 10 µg/mL and the Delta [3] was 135%.
In the case of `COc1cccc2c1C(=O)c1c(O)c3c(c(O)c1C2=O)C[C@@](O)(C(=O)CO)C[C@@H]3O[C@H]1C[C@H](N)[C@H](O)[C@H](C)O1` [DOXORUBICIN], the T/C [9] is reported as 200% and the IC50 [2] is reported as 0.005 µg/mL (≈ 0.0092 µM).
In the case of `N=C(N)N/N=C/c1c(-c2ccc(Cl)c(Cl)c2Cl)nc2n1CCS2`, the IC50 [2] is reported as 2.5 µg/mL (≈ 6.42 µM), the Delta [3] is reported as 111% and the T/C [8] is reported as 166%.
With `Cc1cn2c(/C=N/N=C(N)N)c(Cl)nc2s1` the IC50 [2] was > 10 µg/mL, the Delta [3] was 146% and the EC50 [10] was 0.016 mg. It also gave a T/C [8] of 106%.
For `N=C(N)N/N=C/c1c(-c2ccc(Cl)cc2Cl)nc2n1CCS2`, the IC50 [2] was 5 µg/mL (≈ 14.1 µM), the Delta [3] was 119% and the T/C [8] was 200%.
`N=C(N)N/N=C/c1c(-c2ccc(Cl)c(Cl)c2Cl)nc2sccn12` showed an IC50 [2] of 2 µg/mL (≈ 5.16 µM) and a T/C [5] of 180%.
In the case of `N=C(N)N/N=C/c1c(-c2ccc(Cl)cc2)nc2sc(Cl)cn12`, the IC50 [2] is reported as 0.6 µg/mL (≈ 1.7 µM), the Delta [3] is reported as 100% and the T/C [5] is reported as 166%.
With `Cc1csc2nc(Cl)c(/C=N/N=C(N)N)n12` the IC50 [2] was > 10 µg/mL, the Delta [3] was 134% and the T/C [8] was 106%.
